Values quoted from earlier work, collected in US20180125835A1, “Dosage and Use of an A2A Antagonist” (H. Lundbeck A/S, priority 2014, published 2018).

Conditions: in vivo; cited from earlier work

In the case of `Cc1ccc(-c2nc(N)nc3c2nnn3Cc2cccc(CO[C@H]3CCOC3)n2)o1` [Compound V-81444], the half-life is given as 5 to 7 h.
